Data as given in patent US10040791B2, “Isoxazole derivative as mutant isocitrate dehydrogenase 1 inhibitor” (Daiichi Sankyo Company, Limited, priority 2014, dated 2018).
Like-named read-outs stand apart in the source and are kept apart here.

Legend:
[1] = tested on: HT1080 xenografted mice (IDH1R132C); experiment: 2-HG production inhibitory activity using HT1080 xenografted mice; format: in vivo, mouse; conditions: for response vs control in vivo at 75 mg/kg: Mus musculus, HT-1080, po, 6 h, read-out: Test Example 5 Ratio (%)
Method: HT1080 xenografted mice having successfully engrafted tumors were given by oral gavage each compound at 75 mg/kg a total of three times twice a day. The compound was suspended in a vehicle solution at 7.5 mg/mL using a homogenizer. Then, the suspension was stored at −20° C., thawed immediately before the administration, and given to mice. A negative control group for the test was given a vehicle by oral gavage. The body weights of the mice were measured using an automatic balance for small animals. The dosing solution was administered at a dose of 10 mL/kg body weight.
6 hours after the final administration, each mouse was euthanized with carbon dioxide. A portion of a tumor was collected, and its weight was measured using an electronic balance. Then, the tumor was frozen on dry ice. To the frozen tumor, methanol was added in an amount of 14 times the tumor weight. The resulting tumor was homogenized with Beads shocker (Yasui Kikai Corp.) and then incubated for 15 minutes in a freezer at −20° C. After centrifugation at 15000 rpm at 4° C. for 15 minutes using a high-speed refrigerated microcentrifuge, 250 μL of methanol and 400 μL of ultrapure water were added to 150 μL of the obtained supernatant. The prepared samples were subjected to 2-HG measurement.

[2] = tested on: HT-1080 cells expressing IDH1R132C; experiment: 2-HG production inhibitory activity using HT1080 cell; format: cell-based, human; conditions: Homo sapiens
Method: Then, 100 μL of growth medium B was added to each well, further 25 μL of a solution of each compound diluted to a predetermined concentration with growth medium B was added to each well, and the cells were incubated at 37° C. for 2 days under 5% CO2. […] Then, 150 μL of ultrapure water was further added to each well, and the mixture was stirred by pipetting and stored at −20° C.
The preserved solutions were thawed at room temperature.

IDH1R132C = IDH1R132C (Homo sapiens (Human), UniProt O75874, R132C); experiment: Inhibitory activity against IDH1R132C enzyme (NADPH detection, WST-8); format: biochemical; conditions: 10 nM, residual NADPH detected with WST-8, read-out: Test Example 1 IDH1 R132C IC50
[3] = HT-1080, read-out: Test Example 3 IC50 (nM)
[4] = 2-HG production, HT1080 xenografted mice
[5] = HT-1080, 2-HG production, HT1080 cells, read-out: Test Example 3 IC50

Sequence of IDH1R132C (O75874 whole entry R132C): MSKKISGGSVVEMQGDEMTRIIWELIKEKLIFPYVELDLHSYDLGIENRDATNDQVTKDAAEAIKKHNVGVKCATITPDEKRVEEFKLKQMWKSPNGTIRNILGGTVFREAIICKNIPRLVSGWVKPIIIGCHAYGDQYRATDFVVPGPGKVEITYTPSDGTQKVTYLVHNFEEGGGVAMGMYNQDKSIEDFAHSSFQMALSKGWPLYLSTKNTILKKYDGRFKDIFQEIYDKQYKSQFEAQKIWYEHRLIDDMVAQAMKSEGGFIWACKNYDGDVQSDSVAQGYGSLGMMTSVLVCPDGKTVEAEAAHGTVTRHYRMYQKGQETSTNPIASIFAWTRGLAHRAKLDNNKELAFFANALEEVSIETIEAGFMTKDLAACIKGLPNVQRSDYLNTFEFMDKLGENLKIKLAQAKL

Row | SMILES | IC50 (IDH1R132C) [nM] | IC50 [2, 5] [nM] | response vs control in vivo at 75 mg/kg [1] [%] | IC50 [2, 3] [nM] | response vs control in vivo at 75 mg/kg [1, 4] [%] | Test Example 5 Ratio (%) [1, 4] [%]
1 | Cc1cn(C(=O)c2c(-c3c(Cl)cc(Cl)cc3Cl)noc2C(C)(C)F)c2cccc(/C=C/C(=O)O)c12 [Example 21, (2E)-3-(1-{[5-(2-Fluoropropan-2-yl)-3-(2,4,6-trichlorophenyl)-1,2-oxazol-4-yl]carbonyl}-3-methyl-1H-indol-4-yl)prop-2-enoic acid] | 95 | – | 14 | 56 | – | –
2 | Cc1cc(Cl)c(-c2noc(C(C)(C)F)c2C(=O)n2cc(C)c3c(/C=C/C(=O)O)cccc32)c(Cl)c1 [Example 56, (2E)-3-(1-{[3-(2,6-Dichloro-4-methylphenyl)-5-(2-fluoropropan-2-yl)-1,2-oxazol-4-yl]carbonyl}-3-methyl-1H-indol-4-yl)prop-2-enoic acid] | 107 | 52 | – | – | 28 | –
3 | CC(C)(F)c1onc(-c2c(Cl)cc(Cl)cc2Cl)c1C(=O)n1cc2c3c(cccc31)/C(=C/C(=O)O)CC2 [Example 13, (2E)-[1-{[5-(2-Fluoropropan-2-yl)-3-(2,4,6-trichlorophenyl)-1,2-oxazol-4-yl]carbonyl}-3,4-dihydrobenzop[cd]indol-5(1H)-ylidene]ethanoic acid] | 148 | 51 | – | – | 28 | –
4 | CC1(c2onc(-c3c(Cl)cc(Cl)cc3Cl)c2C(=O)n2cc3c4c(cccc42)/C(=C/C(=O)O)CC3)COC1 [Example 8, (2E)-[1-{[5-(3-Methyloxetan-3-yl)-3-(2,4,6-trichlorophenyl)-1,2-oxazol-4-yl]carbonyl}-3,4-dihydrobenzo[cd]indol-5(1H)-ylidene]ethanoic acid] | 55 | 22 | – | – | 67 | –
5 | CC(C)(C)c1onc(-c2c(F)cc(Cl)cc2Cl)c1C(=O)n1ccc2c(/C=C/C(=O)O)cccc21 [Example 35, (2E)-3-(1-{[5-(tert-Butyl)-3-(2,4-dichloro-6-fluorophenyl)-1,2-oxazol-4-yl]carbonyl}-1H-indol-4-yl)prop-2-enoic acid] | 161 | 244 | – | – | 64 | –
6 | Cc1cn(C(=O)c2c(-c3c(Cl)cc(Cl)cc3Cl)noc2C(C)(F)F)c2cccc(/C=C/C(=O)O)c12 [Example 51, (2E)-3-(1-{[5-(1,1-Difluoroethyl)-3-(2,4,6-trichlorophenyl)-1,2-oxazol-4-yl]carbonyl}-3-methyl-1H-indol-4-yl)prop-2-enoic acid] | 115 | – | 52 | 83 | – | –
7 | CC(C)(C)c1onc(-c2c(Cl)cc(Cl)cc2Cl)c1C(=O)n1ccc2c(/C=C/C(=O)O)cccc21 [Example 22, (2E)-3-(1-{[5-(tert-Butyl)-3-(2,4,6-trichlorophenyl)-1,2-oxazol-4-yl]carbonyl}-1H-indol-4-yl)prop-2-enoic acid] | 189 | 109 | – | – | 13 | –
8 | COC1(c2onc(-c3c(Cl)cc(Cl)cc3Cl)c2C(=O)n2cc3c4c(cccc42)/C(=C/C(=O)O)CC3)CCC1 [Example 12, (2E)-[1-{[5-(1-Methoxycyclobutyl)-3-(2,4,6-trichlorophenyl)-1,2-oxazol-4-yl]carbonyl}-3,4-dihydrobenzo[cd]indol-5(1H)-ylidene]ethanoic acid] | 144 | 24 | – | – | 7 | –
9 | CC(C)(F)c1onc(-c2c(F)cc(Cl)cc2Cl)c1C(=O)n1cc2c3c(cccc31)/C(=C/C(=O)O)CC2 [Example 16, (2E)-[1-{[3-(2,4-Dichloro-6-fluorophenyl)-5-(2-fluoropropan-2-yl)-1,2-oxazol-4-yl]carbonyl}-3,4-dihydrobenzo[cd]indol-5(1H)-ylidene]ethanoic acid] | 107 | 89 | – | – | 32 | –

Second part, led by results:

Row | IC50 (IDH1R132C) [nM] | IC50 [2, 5] [nM] | SMILES | response vs control in vivo at 75 mg/kg [1] [%] | IC50 [2, 3] [nM] | response vs control in vivo at 75 mg/kg [1, 4] [%] | Test Example 5 Ratio (%) [1, 4] [%]
10 | 567 | 32 | C=CC(=O)N1CCC(c2onc(-c3c(Cl)cc(Cl)cc3Cl)c2C(=O)n2ccc3c(C4CC4C(=O)O)cccc32)CC1 (stereo not drawn) [Example 105] | – | – | 27 | –
11 | 133 | 4 | C=CC(=O)N1CCC(c2onc(-c3ccc(Cl)cc3Cl)c2C(=O)n2cc3c4c(cccc42)/C(=C/C(=O)O)CC3)CC1 [Example 131, (2E)-[1-{[5-(1-Acryloylpiperidin-4-yl)-3-(2,4-dichlorophenyl)-1,2-oxazol-4-yl]carbonyl}-3,4-dihydrobenzo[cd]indol-5(1H)-ylidene]ethanoic acid] | – | – | 3 | –
12 | 625 | 97 | C=CC(=O)N1CCC(c2onc(-c3c(Cl)cc(Cl)cc3Cl)c2C(=O)n2ncc3c(/C=C/C(=O)O)cccc32)CC1 [Example 118] | – | – | 87 | –
13 | 151 | 107 | C=CC(=O)N1C[C@@H](C)N(c2onc(-c3c(Cl)cccc3Cl)c2C(=O)n2ccc3c(/C=C/C(=O)O)cccc32)[C@@H](C)C1 [Example 144, (2E)-3-(1-{[5-(4-Acryloyl-cis-2,6-dimethylpiperazin-1-yl)-3-(2,6-dichlorophenyl)-1,2-oxazol-4-yl]carbonyl}-1H-indol-4-yl)prop-2-enoic acid] | – | – | 34 | –
14 | 168 | 41 | C=CC(=O)N1C[C@@H](C)N(c2onc(-c3c(Cl)cc(Cl)cc3Cl)c2C(=O)n2ccc3c(/C=C/C(=O)O)cccc32)[C@@H](C)C1 [Example 151, (2E)-3-(1-{[5-(4-Acryloyl-cis-2,6-dimethylpiperazin-1-yl)-3-(2,4,6-trichlorophenyl)-1,2-oxazol-4-yl]carbonyl}-1H-indol-4-yl)prop-2-enoic acid] | – | – | 60 | –
15 | 78 | 219 | C=CC(=O)N1CCN(c2onc(-c3c(Cl)cccc3Cl)c2C(=O)n2ccc3c(/C=C/C(=O)O)cccc32)C2(CC2)C1 [Example 147, (2E)-3-(1-{[5-[7-Acryloyl-4,7-diazaspiro[2.5]oct-4-yl]-3-(2,6-dichlorophenyl)-1,2-oxazol-4-yl]carbonyl}-1H-indol-4-yl)prop-2-enoic acid] | – | – | 18 | –
16 | 81 | 106 | C=CC(=O)N1CC2(CC2)N(c2onc(-c3c(F)cccc3Cl)c2C(=O)n2ccc3c(/C=C/C(=O)O)cccc32)C[C@H]1CC [Example 160, (2E)-3-[1-({5-[(6R)7-Acryloyl-6-ethyl-4,7-diazaspiro[2.5]oct-4-yl]-3-(2-chloro-6-fluorophenyl)-1,2-oxazol-4-yl}carbonyl)-1H-indol-4-yl]prop-2-enoic acid] | – | – | 47 | –
17 | 143 | 14 | C=CC(=O)N1CCC(c2onc(-c3ccc(Cl)c(F)c3Cl)c2C(=O)n2cc3c4c(cccc42)/C(=C/C(=O)O)CC3)CC1 [Example 130, (2E)-[1-{[5-(1-Acryloylpiperidin-4-yl)-3-(2,4-dichloro-3-fluorophenyl)-1,2-oxazol-4-yl]carbonyl}-3,4-dihydrobenzo[cd]indol-5(1H)-ylidene]ethanoic acid] | – | – | 5 | –
18 | 168 | 197 | CC(C)(F)c1onc(-c2ccc(Cl)cc2Cl)c1C(=O)n1cc2c3c(cccc31)/C(=C/C(=O)O)CC2 [Example 69, (2E)-[1-{[3-(2,4-Dichlorophenyl)-5-(2-fluoropropan-2-yl)-1,2-oxazol-4-yl]carbonyl}-3,4-dihydrobenzo[cd]indol-5(1H)-ylidene]ethanoic acid] | – | – | 20 | –
19 | 132 | 278 | C=CS(=O)(=O)N1CCN(c2onc(-c3c(Cl)cccc3Cl)c2C(=O)n2ccc3c(/C=C/C(=O)O)cccc32)CC1 [Example 149, (2E)-3-[1-({3-(2,6-Dichlorophenyl)-5-[4-(ethenylsulfonyl)piperazin-1-yl]-1,2-oxazol-4-yl}carbonyl)-1H-indol-4-yl]prop-2-enoic acid] | – | – | 96 | –
20 | 155 | 69 | Cc1cn(C(=O)c2c(-c3ccc(Cl)cc3Cl)noc2C(C)(C)F)c2cccc(/C=C/C(=O)O)c12 [Example 62, (2E)-3-(1-{[3-(2,4-Dichlorophenyl)-5-(2-fluoropropan-2-yl)-1,2-oxazol-4-yl]carbonyl}-3-methyl-1H-indol-4-yl)prop-2-enoic acid] | – | – | – | 10
21 | 159 | 3 | C=CC(=O)N1CCC(c2onc(-c3c(Cl)cc(Cl)cc3Cl)c2C(=O)n2cc3c4c(cccc42)/C(=C/C(=O)O)CC3)CC1 [Example 94, (2E)-[1-{[5-(1-Acryloylpiperidin-4-yl)-3-(2,4,6-trichlorophenyl)-1,2-oxazol-4-yl]carbonyl}-3,4-dihydrobenzo[cd]indol-5(1H)-ylidene]ethanoic acid] | – | – | 1 | –
